# In patent US20140357713A1, “ANTIMICROBIAL COMPOUNDS AND METHODS OF USE” (NexMed Holdings, Inc., priority 2012, published 2014):
# Read-outs that look alike come from different tables or passages of the source.
# Assays:
# [1] = tested on: Escherichia coli (ATCC 25922); assay: Minimum inhibitory concentration (MIC) assay, Example 33; format: cell-based
# Method: (§1) Thirty compounds were tested for antimicrobial activity using standard procedures and standard strains for both the minimum inhibitory concentration (MIC) assay and a time kill study. Both the MIC assay and the time kill study were performed according to Clinical and Laboratory Standards Institute (CLSI) guidelines. Three bacteria strains, Escherichia coli (ATCC 25922), Pseudomonas aeruginosa (ATCC 27853), Staphulococcus aureus (ATCC 29213), and two fungus strains, Candida albicans (ATCC 90029) and Aspergillus niger (CMCC 98003), were used in the experiments.
# (§2) Preparation of cultures. Before the experiment, two days for the bacteria strains and five days for fungus strains, an aliquot was removed from the cultures frozen at −80° C. Medium was added to the surface of an appropriate agar plate and streaked with the aliquot. The plate was incubated for 20 to 24 hrs at 35±2° C. for bacteria or for 5 days at 26-30° C. in incubator for fungus. From the resulting growth on each plate, one isolated colony of similar morphology was selected and re-streaked onto a fresh agar plate using a sterile disposable loop. The plate was incubated 20 to 24 hrs at 35±2° C. or for 5 days at 26-30° C. in an incubator.
# (§3) Preparation of Assay Plates with Medium and Drugs. On the day of the assay, CAMHB medium or RPMI 1640 medium was removed from 4′C storage and allowed to reach room temperature. Ninety microliters (μL) of room temperature CAMHB or RPMI 1640 (supplemented with the appropriate concentration of DMSO, if required) were added to rows B-G of each 96-well microtiter plate. Using a pipette, duplicate 180 μL aliquots of each drug stock solution were added to column 1 (e.g. A1 and B1 or C1 and D1 or E1 and F1 or G1 and H1). Using a multichannel pipette or the Provision 2000 liquid handler, serial 2-fold dilutions (90 μL) were performed in each row across the plate to row G. Eighty μL of compounds dilutions were transferred to a 96-deep well plate. Medium, 1,520 μL of CAMHB or RPMI 1640, was added to each well. The contents of the wells were mixed thoroughly. A 50 μL aliquot of each of the resulting mixtures was transferred to a 96-well assay plate.
# (§4) For bacteria, a sterile inoculating loop was used to transfer growth from an agar plate culture into about 5 mL of test medium. Using a turbidity meter, this inoculum was adjusted so that its density (600 nm) was equivalent to a 0.5 McFarland barium sulfate standard (0.08-0.13). The resulting suspension was diluted 1:100 into medium to obtain two times test inoculums.
# (§5) For Aspergillus niger, sporulating colonies were covered with RPMI 1640, and a suspension was prepared by gently probing the colonies with the tip of a transfer pipette. The suspension was transferred to a sterile tube and mixed with a vortex mixer for 15 seconds. The densities at 530 nm were adjusted to 0.09-0.13 for each sample. The resulting suspension was diluted 1:50 with the medium to obtain two times test inoculums. Fifty μL/well of this inoculum suspension was added to wells of drug-containing plates (1:2 dilution). Plates were incubated at 35° C. for the appropriate times. The MIC was read and recorded according to CLSI guidelines.
# (§6) The MIC values for thirty compounds against Escherichia coli, Pseudomonas aeruginosa, Staphulococcus aureus, Candida albicans, and Aspergillus niger were recorded and are presented in Table 3 and Table 4.
# [2] = tested on: Pseudomonas aeruginosa (ATCC 27853); assay: as above; format: cell-based
# Method: as §1, §2, §3, §4, §5, §6
# [3] = tested on: Staphulococcus aureus (ATCC 29213); assay: as above; format: cell-based, Staphylococcus aureus
# Method: as §1, §2, §3, §4, §5, §6
# [4] = pH (Table 1); format: physicochemical
# [5] = tested on: Candida albicans (ATCC 90029); assay: Minimum inhibitory concentration (MIC) assay, Example 33; format: cell-based
# Method: as §1, §2, §3
# For Candida albicans, a sterile inoculating loop was used to transfer growth from an agar plate culture into a tube with RPMI1640 medium. This inoculum was adjusted so that its density at 530 nm was in the ranges from 0.08 to 0.13. The resulting suspension was diluted 1:50 and further diluted 1:20 with the medium to obtain two times test inoculums.
# as §5, §6
# [6] = tested on: Aspergillus niger (CMCC 98003); assay: as above; format: cell-based
# Method: as §1, §2, §3, §5, §6
# [7] = tested on: Escherichia coli (ATCC 25922); assay: Time kill study, Example 33 (0 to 5 min); format: cell-based; conditions: 1×MIC
# Method: as §1
# (§7) The viable counts in Log10 CFU/mL at each time point were recorded.
# (§8) Time kill studies. Strain suspensions were prepared as described above for the MIC test, and strain suspensions and compound solutions were mixed in the same volume. Samples were removed at specified times including 0 min, 30 sec, 1 min and 5 mins, were diluted in the test medium and streaked on agar. Colonies were counted after 24 to 48 hrs of incubation. […]
# [8] = tested on: Pseudomonas aeruginosa (ATCC 27853); assay: Time kill study, Example 33 (0 to 5 min); format: cell-based; conditions: 1×MIC
# Method: as §1, §7, §8
# [9] = tested on: Staphylococcus aureus (ATCC 29213); assay: Time kill study, Example 33 (0 to 5 min); format: cell-based; conditions: 1×MIC
# Method: as §1, §7, §8
# [10] = Escherichia coli, ATCC25922, n = 1, read-out: MIC E. coli
# [11] = Escherichia coli, ATCC25922, n = 2, read-out: MIC E. coli
# [12] = Pseudomonas aeruginosa, ATCC27853, n = 1, read-out: MIC P. aeruginosa
# [13] = Pseudomonas aeruginosa, ATCC27853, n = 2, read-out: MIC P. aeruginosa
# [14] = Staphylococcus aureus, ATCC29213, n = 1, read-out: MIC S. aureus
# [15] = Staphylococcus aureus, ATCC29213, n = 2, read-out: MIC S. aureus
# [16] = Table 19 summary of Example 33 and Example 35
Structure (SMILES),"MIC [1, 10] [µg/mL]","MIC [1, 11] [µg/mL]","MIC [2, 12] [µg/mL]","MIC [2, 13] [µg/mL]","MIC [3, 14] [µg/mL]","MIC [3, 15] [µg/mL]",pH [4],"MIC [1, 16] [µg/mL]",MIC E. coli ([1]; n = 1) [µg/mL],MIC E. coli ([1]; n = 2) [µg/mL],MIC ([2]; Table 19 summary) [µg/mL],MIC P. aeruginosa ([2]; n = 1) [µg/mL],MIC P. aeruginosa ([2]; n = 2) [µg/mL],MIC ([3]; Table 19 summary) [µg/mL],MIC S. aureus ([3]; n = 1) [µg/mL],MIC S. aureus ([3]; n = 2) [µg/mL],MIC Candida albicans ([5]; n = 1) [µg/mL],MIC Candida albicans ([5]; n = 2) [µg/mL],MIC Aspergillus niger ([6]; n = 1) [µg/mL],MIC Aspergillus niger ([6]; n = 2) [µg/mL],other results
"CC(C)(O/N=C(\C(=O)N[C@@H]1C(=O)N2C(C(=O)[O-])=C(C[n+]3ccccc3)CS[C@H]12)c1csc(N)n1)C(=O)O [Ceftazidime, reference compound]",0.5,0.5,2,2,8,16,–,–,–,–,–,–,–,–,–,–,–,–,–,–,–
"CCCCCCCCCCCCOC(=O)C(C)N(C)C (stereo not shown) [Nex-30, Dodecyl 2-(dimethylamino)propanoate ethanesulfonate]",–,–,–,–,–,–,3.79,3130,3130,3130,6250,6250,6250,3130,3130,3130,>12500,>12500,>12500,>12500,"MIC ([5]; Table 19 summary): >12500 µg/mL; MIC ([6]; Table 19 summary): >12500 µg/mL; Viable counts, Escherichia coli time kill study ([7]; 0.5 min): 5.46 Log10 CFU/mL; Viable counts, Escherichia coli time kill study ([7]; 1 min): 3.7 Log10 CFU/mL; Viable counts, Escherichia coli time kill study ([7]; 5 min): <3.52 Log10 CFU/mL; Viable counts, Escherichia coli time kill study ([7]; time 0): 5.83 Log10 CFU/mL; Viable counts, Pseudomonas aeruginosa time kill study ([8]; 0.5 min): <4.0 Log10 CFU/mL; Viable counts, Pseudomonas aeruginosa time kill study ([8]; 1 min): <3.70 Log10 CFU/mL; Viable counts, Pseudomonas aeruginosa time kill study ([8]; 5 min): <3.52 Log10 CFU/mL; Viable counts, Pseudomonas aeruginosa time kill study ([8]; time 0): 5.67 Log10 CFU/mL; Viable counts, Staphylococcus aureus time kill study ([9]; 0.5 min): 6.23 Log10 CFU/mL; Viable counts, Staphylococcus aureus time kill study ([9]; 1 min): 6.22 Log10 CFU/mL; Viable counts, Staphylococcus aureus time kill study ([9]; 5 min): 6.21 Log10 CFU/mL; Viable counts, Staphylococcus aureus time kill study ([9]; time 0): 6.24 Log10 CFU/mL"
"CCCCCCCCCCCCOC(=O)[C@H](C)N(C)C.Cl [Nex-57, L-Dodecyl 2-(dimethylamino)propanoate hydrochloride]",–,–,–,–,–,–,1.57,3130,3130,3130,6250,6250,6250,3130,3130,3130,>12500,>12500,>12500,>12500,"MIC ([5]; Table 19 summary): >12500 µg/mL; MIC ([6]; Table 19 summary): >12500 µg/mL; Viable counts, Escherichia coli time kill study ([7]; 0.5 min): <4.0 Log10 CFU/mL; Viable counts, Escherichia coli time kill study ([7]; 1 min): <3.70 Log10 CFU/mL; Viable counts, Escherichia coli time kill study ([7]; 5 min): <3.52 Log10 CFU/mL; Viable counts, Escherichia coli time kill study ([7]; time 0): 5.78 Log10 CFU/mL; Viable counts, Pseudomonas aeruginosa time kill study ([8]; 0.5 min): <4.0 Log10 CFU/mL; Viable counts, Pseudomonas aeruginosa time kill study ([8]; 1 min): <3.70 Log10 CFU/mL; Viable counts, Pseudomonas aeruginosa time kill study ([8]; 5 min): <3.52 Log10 CFU/mL; Viable counts, Pseudomonas aeruginosa time kill study ([8]; time 0): 5.45 Log10 CFU/mL; Viable counts, Staphylococcus aureus time kill study ([9]; 0.5 min): 6.17 Log10 CFU/mL; Viable counts, Staphylococcus aureus time kill study ([9]; 1 min): 6.19 Log10 CFU/mL; Viable counts, Staphylococcus aureus time kill study ([9]; 5 min): 5.92 Log10 CFU/mL; Viable counts, Staphylococcus aureus time kill study ([9]; time 0): 6.29 Log10 CFU/mL"
"NCC[C@H](O)C(=O)N[C@@H]1C[C@H](N)[C@@H](O[C@H]2O[C@H](CN)[C@@H](O)[C@H](O)[C@H]2O)[C@H](O)[C@H]1O[C@H]1O[C@H](CO)[C@@H](O)[C@H](N)[C@H]1O [Amikacin, reference compound]",2,2,2,2,2,2,–,–,–,–,–,–,–,–,–,–,–,–,–,–,–
"C[C@@H]1[C@H](O)[C@@H](C)/C=C/C=C/C=C/C=C/C=C/C=C/C=C/[C@H](O[C@@H]2O[C@H](C)[C@@H](O)[C@H](N)[C@@H]2O)C[C@@H]2O[C@](O)(C[C@@H](O)C[C@@H](O)[C@H](O)CC[C@@H](O)C[C@@H](O)CC(=O)O[C@H]1C)C[C@H](O)[C@H]2C(=O)O [Amphotericin B, reference compound]",–,–,–,–,–,–,–,–,–,–,–,–,–,–,–,–,0.5,0.5,2000,2000,–
"OC(Cn1cncn1)(Cn1cncn1)c1ccc(F)cc1F [Fluconazole, reference compound]",–,–,–,–,–,–,–,–,–,–,–,–,–,–,–,–,–,–,–,–,"MIC ([5]; Candida albicans, ATCC90029, n = 1, read-out: MIC Candida albicans): 0.25 µg/mL; MIC ([5]; Candida albicans, ATCC90029, n = 2, read-out: MIC Candida albicans): 0.25 µg/mL; MIC ([6]; Aspergillus niger, CMCC98003, n = 1, read-out: MIC Aspergillus niger): > 4000 µg/mL; MIC ([6]; Aspergillus niger, CMCC98003, n = 2, read-out: MIC Aspergillus niger): > 4000 µg/mL"
